In brackets after ≈: the same amount, converted by molar mass. Several values for one entry are separate records, joined by “and”; a condition that tells them apart may be missing. Equal values may be shown once. Bridge positions count the residues as written; N and C are the ends. Square brackets hold non-standard residues; d marks the D form. Peptide text beside a SMILES is read from it. * marks the point of attachment. Hydrocinnamoyl = O=C(CCc1ccccc1)*; dCha = N[C@H](CC1CCCCC1)C(=O)O; Orn = NCCC[C@H](N)C(=O)O
Columns and labels:
[1] = Plasma pharmacokinetics after a single IV dose in mice; type: in vivo; settings: male C57BL/6J mice, LC-MS/MS
Protocol: The C5aR1 peptide antagonist concentrations were quantified by a previously developed and validated LC–MS/MS method. Briefly, the LC–MS/MS system consisted of an API 3200 (AB SCIEX) triple quadrupole LC–MS/MS mass spectrometer coupled with an Agilent 1200 series HPLC system (Agilent Technologies, Santa Clara CA, USA). For sample processing, 10 µL of the solution containing the C5aR1 peptide antagonist was mixed with 10 µL of internal standard (AcF-[OPdChaWR]) dissolved in solvent (ACN) followed by sample processing, extraction, supernatant isolation, drying, and reconstitution in a 75% methanol-in-water solution. A small volume of processed sample (approximately 50 µL) was used for the LC–MS measurement. The autosampler was set at 4 °C and the column oven temperature was maintained in the range of 25 ± 1 °C. The system control and data acquisition were executed by Analyst software (AB SCIEX, Applied Biosystems Inc., Framingham, MA, USA, version 1.5.1). Chromatographic separation was implemented using a Kinetex EVO C18 analytical column (100 mm × 2.1 mm, 100 Å, 5 µm, Phenomenex Inc., Torrance, CA, USA) under binary gradient conditions using mobile phase A (milliQ water containing 0.1% formic acid) and mobile phase B (acetonitrile containing 0.1% formic acid) with a variable flow rate, as described in Kumar et al..
The plasma pharmacokinetic (PK) profile and biodistribution of peptide-loaded nanoparticles (1 mg/kg equivalent dose of free peptide) vs. free peptide were assessed in mice after intravenous (IV; via tail vein) dosing. Serial blood samples were collected via a tail vein using a microsampling technique. Blood samples were collected at 0.04, 0.25, 0.5, 0.75, 1, 1.5, […], 4, 6, and 24 h for both groups and then 48, 72, 96, and 120 h for the nanoparticle group. The blood samples were centrifuged at 2000× g for 10 min at 4 °C, and the separated plasma samples (10 µL) were collected, diluted with 100 µL of milliQ water and 10 µL of internal standard, filtered through Microcon®-10 centrifugal filters (Merck, Melbourne, VIC, Australia) to separate nanoparticles from released peptide, and stored at −80 °C until time of analysis. For tissue distribution, on the terminal day, i.e., day 1 for native peptide and day 5 for the nanoparticle group, animals were transcardially perfused using PBS solution to remove circulatory peptide/formulation, and tissue samples were collected, processed as described in our previously published method, and filtered as mentioned above.
On the day of analysis, samples were processed for C5aR1 peptide antagonist concentrations using the above-mentioned LC–MS/MS method as described previously. […]

[2] = Solubility of the peptide in water; type: physicochemical; settings: method not described
[3] = mice, cited from earlier work
From the text: The hexapeptide, phenylpropanoic acid-[ornithine-proline-d-cyclohexylalanine-tryptophan-arginine] (HC-[OPdChaWR]) is an antagonist of the C5a receptor 1 (C5aR1) of the innate immune complement cascade.

- time for which plasma peptide levels are measurable after dosing ([1]; single IV 1 mg/kg peptide equivalent, plasma): unmeasurable after 6 h post-dosing
- MRT ([1]; mouse, single IV 1 mg/kg peptide equivalent, plasma, two-compartmental model, n = 4, read-out: mean residence time (MRT)): 45.6 min
- AUC(0-t) ([1]; mouse, single IV 1 mg/kg, plasma, linear trapezoidal rule, n = 4, read-out: systemic exposure (AUC0-t)): 3830 ng·h/mL
- half-life ([1]; mouse, single IV (tail vein) 1 mg/kg peptide equivalent, plasma filtered (Microcon-10) so released peptide is measured, two-compartmental model, n = 4, read-out: terminal elimination half-life (t1/2) (converted)): 50.4 min
- solubility in water [2]: 1000 µg/mL (≈ 1190 µM)
SMILES: N=C(N)NCCC[C@@H]1NC(=O)[C@H](Cc2c[nH]c3ccccc23)NC(=O)[C@@H](CC2CCCCC2)NC(=O)[C@@H]2CCCN2C(=O)[C@@H](NC(=O)CCc2ccccc2)CCCNC1=O [HC-[OPdChaWR], phenylpropanoic acid-[ornithine-proline-d-cyclohexylalanine-tryptophan-arginine]] (Hydrocinnamoyl-[Orn]P[dCha]WR; lactam 1-C)
- plasma half-life in vivo ([3]; intravenous (IV) injection): 10.2 min
- t1/2 values reported previously ([3]; listed as free peptide): 10.2 min and 19.8 min
